Test system: ACAT-2 protein
Assay: inhibition of ACAT-2 protein activity
Type: biochemical
Conditions: general statement, concentration not given

| Compound | activity of the ACAT-2 protein is inhibited by the compound |
| --- | --- |
| CCCCCCCCCCC(C)(C)C(=O)Nc1c(OC)cc(OC)cc1OC [CI-976] | inhibited |
| CC(C)c1cc(C(C)C)c(CC(=O)NS(=O)(=O)Oc2c(C(C)C)cccc2C(C)C)c(C(C)C)c1 [CI-1011] | inhibited |
| CC(C)c1cccc(C(C)C)c1NC(=O)NCC1(c2ccc(N(C)C)cc2)CCCC1.Cl [PD 132301-2] | inhibited |
| O=C(O)c1cc[c]([Hg][OH])cc1 [PHMB] | inhibited |
| O=S(=O)(F)Cc1ccccc1 [PMSF] | inhibited |
| CC(=O)[C@H]1CC[C@H]2[C@@H]3CCC4=CC(=O)CC[C@]4(C)[C@H]3CC[C@]12C [progesterone] | inhibited |
